# Source: patent US20240199692A1 (priority 2019, published 2024)
# *1 amine or outer side, *2 acyl side, *3 side chain or, on linkers, in order; H or OH if unused. Where a SMILES comes first, the peptide text is derived from it. Bridges are numbered along the chain shown (N, C = ends). Side-chain parts run from the residue outwards. [ ]: non-standard residue; d: D form. The star is where a group is joined. Benzenesulfonyl(4-OPh) = O=S(=O)(c1ccc(Oc2ccccc2)cc1)*; X1 = O=C(Nc1ccc(S(=O)(=O)*)cc1)c1ccc(OC(F)(F)F)cc1; d(γGlu) = O=C(O)[C@@H](CCC(=O)[*:2])N[*:1]; C16 diacid = O=C(O)CCCCCCCCCCCCCCC(=O)*; NMeI = CC[C@H](C)[C@H](NC)C(=O)O; NMeE = CN[C@@H](CCC(=O)O)C(=O)O; NMeD = CN[C@@H](CC(=O)O)C(=O)O; β3hP = O=C(O)C[C@@H]1CCCN1; Dab = NCC[C@H](N)C(=O)O; AEEA = NCCOCCOCC(=O)O; GABA = NCCCC(=O)O; βAla = NCCC(=O)O
# Target: T1, MMP2 (Homo sapiens, UniProt P08253)
# T1 sequence (P08253 110-660): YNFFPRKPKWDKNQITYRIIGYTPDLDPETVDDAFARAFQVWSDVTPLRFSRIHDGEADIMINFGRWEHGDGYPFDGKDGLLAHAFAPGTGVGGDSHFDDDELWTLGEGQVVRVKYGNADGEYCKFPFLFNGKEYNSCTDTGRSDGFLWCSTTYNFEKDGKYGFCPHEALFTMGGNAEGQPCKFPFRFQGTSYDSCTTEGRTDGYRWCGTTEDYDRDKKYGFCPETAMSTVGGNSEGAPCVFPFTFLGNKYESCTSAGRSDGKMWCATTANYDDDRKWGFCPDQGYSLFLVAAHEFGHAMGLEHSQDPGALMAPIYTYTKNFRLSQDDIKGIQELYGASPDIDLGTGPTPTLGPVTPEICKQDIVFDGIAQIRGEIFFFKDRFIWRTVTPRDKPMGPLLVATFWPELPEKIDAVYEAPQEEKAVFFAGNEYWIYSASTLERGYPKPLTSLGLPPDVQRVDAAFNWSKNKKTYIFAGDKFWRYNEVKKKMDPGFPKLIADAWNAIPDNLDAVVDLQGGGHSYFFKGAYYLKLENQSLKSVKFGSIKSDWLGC
# Test: Inhibitory effects on human MMP2 (Method 1), enzyme assay with MOCAc-Pro-Leu-Gly-Leu-A2pr(Dnp)-Ala-Arg-NH2 substrate, 96-well
# Format: biochemical
# Conditions: Test Example No. 1-1 (Method 1, 96-well microplate); read-out: Human MMP2, IC50
# Experimental: In a reaction solution [50 mmol/L Tris-HCl (pH 7.5), 150 mmol/L NaCl, 10 mmol/L CaCl2, 0.05% Brij L23], 100 μg/mL human recombinant MMP2 enzyme and 1 mmol/L 4-Aminophenylmercuric acetate were mixed together, and reacted at 37° C. for 60 minutes. The human MMP2 activated through the reaction was poured into a 96-well microplate to reach a final concentration of 0.7 or 7 ng/mL.
row,IC50 [nM],Compound
1,0.42,CC(C)C[C@H](NC(=O)[C@H](CCN)NC(=O)CC[C@@H](NS(=O)(=O)c1ccc(NC(=O)c2ccc(OC(F)(F)F)cc2)cc1)C(=O)O)C(=O)N(C)[C@@H](CCC(=O)O)C(=O)N1CCC[C@H]1CC(N)=O [Compound 704] ({X1-d(γGlu)}-[Dab]L[NMeE][β3hP]-NH2; N-terminus assumed)

# Same assay, conditions: Test Example No. 1-1 (Method 1, 96-well); read-out: Human MMP2, IC50
row,IC50 [nM],Compound
1,1.6,CC[C@H](C)[C@@H](C(=O)N1CCC[C@H]1CC(=O)O)N(C)C(=O)[C@@H]1CCCCNC(=O)CNC(=O)CC[C@H](NC(=O)CCCNS(=O)(=O)c2ccc(Oc3ccccc3)cc2)C(=O)N[C@@H](CC(=O)O)C(=O)N[C@@H](C)C(=O)N1 [Compound 891] ({Benzenesulfonyl(4-OPh)-GABA}-EDAK[NMeI][β3hP]-OH; linker 1-4 via G)
2,1.7,"CC[C@H](C)[C@@H](C(=O)N1CCC[C@H]1CC(N)=O)N(C)C(=O)[C@@H]1CCCCNC(=O)CNC(=O)CC[C@H](NC(=O)CCCNS(=O)(=O)c2ccc(Oc3ccccc3)cc2)C(=O)N[C@@H](CC(=O)O)C(=O)N[C@@H](C)C(=O)N1 [Compound 892, [(2S,5S,8S,20S)-8-[{(2S,3S)-1-[(2S)-2-(2-amino-2-oxoethyl)pyrrolidin-1-yl]-3-methyl-1-oxopentan-2-yl}(methyl)carbamoyl]-5-methyl-3,6,14,17,21-pentaoxo-20-{4-[(4-phenoxybenzene-1-sulfonyl)amino]butanamido}-1,4,7,13,16-pentaazacyclohenicosan-2-yl]acetic acid] ({Benzenesulfonyl(4-OPh)-GABA}-EDAK[NMeI][β3hP]-NH2; linker 1-4 via G)"
3,1.1,CC[C@H](C)[C@@H](C(=O)N1CCC[C@H]1CC(N)=O)N(C)C(=O)[C@@H]1CCCCNC(=O)CCNC(=O)CC[C@H](NC(=O)CCCNS(=O)(=O)c2ccc(Oc3ccccc3)cc2)C(=O)N[C@@H](CC(=O)O)C(=O)N[C@@H](CCN)C(=O)N1 [Compound 894] ({Benzenesulfonyl(4-OPh)-GABA}-ED[Dab]K[NMeI][β3hP]-NH2; linker 1-4 via βAla (inferred); N-terminus assumed)
4,1.3,CN(C(=O)[C@@H]1CCCCNC(=O)CCNC(=O)CC[C@H](NC(=O)CCCNS(=O)(=O)c2ccc(Oc3ccccc3)cc2)C(=O)N[C@@H](CC(=O)O)C(=O)N[C@@H](CCN)C(=O)N1)[C@@H](CC(=O)O)C(=O)N1CCC[C@H]1CC(N)=O [Compound 895] ({Benzenesulfonyl(4-OPh)-GABA}-ED[Dab]K[NMeD][β3hP]-NH2; linker 1-4 via βAla (inferred); N-terminus assumed)
5,0.127,"CC[C@H](C)[C@@H](C(=O)N1CCC[C@H]1CC(N)=O)N(C)C(=O)[C@H](CC(C)C)NC(=O)[C@H](C)NC(=O)[C@H](CC(=O)O)NC(=O)[C@H](CCCCNC(=O)COCCOCCNC(=O)COCCOCCNC(=O)CC[C@@H](NC(=O)CCCCCCCCCCCCCCC(=O)O)C(=O)O)NC(=O)CCCNS(=O)(=O)c1ccc(Oc2ccccc2)cc1 [Compound 903, (2S,5S,32R)-2-{[(2S)-1-({(2S)-1-[{(2S,3S)-1-[(2S)-2-(2-amino-2-oxoethyl)pyrrolidin-1-yl]-3-methyl-1-oxopentan-2-yl}(methyl)amino]-4-methyl-1-oxopentan-2-yl}amino)-1-oxopropan-2-yl]carbamoyl}-4,11,20,29,34-pentaoxo-5-{4-[(4-phenoxybenzene-1-sulfonyl)amino]butanamido}-13,16,22,25-tetraoxa-3,10,19,28,33-pentaazaoctatetracontane-1,32,48-tricarboxylic acid] ({Benzenesulfonyl(4-OPh)-GABA}-K([AEEA-AEEA-d(γGlu)-C16 diacid])DAL[NMeI][β3hP]-NH2)"
